Test systems include 786-0 renal; A498 renal; EKVX NSCLC; HCT-15 colon; IGROV1 ovarian; LOX IMVI melanoma; MDA-MB-231 breast; NCI-H226 lung; NCI-H23 lung; SF-295 CNS.
Common to all, as to experiment: NCI-60 cell line screen, 48 h

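Each compound was tested at five concentrations against cells in 96-well plates for 48 hours. Abbreviation: GI50, concentration required for 50% inhibition of growth. TGI denotes the concentration required for complete inhibition of growth.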 Bounds are passed on as bounds.

Take `COc1ccc2nc3cc(Cl)ccc3c(NCCCNCCO)c2c1`: the GI50 is 0.531 µM with 786-0 renal; 0.197 µM with A498 renal; 1.17 µM in the assay with EKVX NSCLC; 0.577 µM in the assay on HCT-15 colon; 0.577 µM in the assay on IGROV1 ovarian; 0.294 µM with LOX IMVI melanoma. The GI50 is 0.47 µM with MDA-MB-231 breast, 1.16 µM with NCI-H226 lung, 0.499 µM with NCI-H23 lung and 0.523 µM in the assay on SF-295 CNS. For the same compound, the TGI with 786-0 renal amounted to 1.96 µM; with A498 renal, 1.5 µM; with EKVX NSCLC it was 4.19 µM; in the assay with HCT-15 colon, 3.15 µM; in the assay on IGROV1 ovarian, 3.18 µM; in the assay with LOX IMVI melanoma, 1.12 µM. Also, the TGI in the assay with MDA-MB-231 breast came to 2.71 µM; in the assay with NCI-H226 lung, 3.12 µM; with NCI-H23 lung, 2.48 µM; with SF-295 CNS it was 2.32 µM.

`c1ccc(-c2oc(-c3ccccc3)c(CN3CCCCC3)c2CN2CCCCC2)cc1`: the GI50 in the assay on 786-0 renal is 2.8 µM; in the assay on A498 renal it was 2.41 µM; with EKVX NSCLC, 2.99 µM; in the assay on HCT-15 colon it was 1.79 µM; with IGROV1 ovarian, 1.73 µM; in the assay with LOX IMVI melanoma, 3.19 µM. Besides, the GI50 was 1.77 µM in the assay on MDA-MB-231 breast, 5.19 µM in the assay on NCI-H226 lung, 3.21 µM with NCI-H23 lung and 2.05 µM with SF-295 CNS. For the same compound, the TGI in the assay on 786-0 renal turned out to be 12.7 µM; in the assay on A498 renal it was 11.8 µM; in the assay with EKVX NSCLC it was 14.2 µM; with HCT-15 colon it was 10.3 µM; with IGROV1 ovarian, 14.4 µM; with LOX IMVI melanoma it was 12.1 µM. Also, the TGI in the assay with MDA-MB-231 breast worked out at 6.06 µM; in the assay on NCI-H226 lung, 22.7 µM; in the assay on NCI-H23 lung, 13 µM; in the assay on SF-295 CNS it was 6.58 µM.

Take `COc1ccc(-c2cc(-c3ccc(Nc4nc(Nc5ccccc5)nc(Nc5ccc(Cl)cc5)n4)cc3)nc(N)n2)cc1`: the GI50 was 11.5 µM with 786-0 renal; 9.29 µM in the assay with A498 renal; 6.55 µM in the assay on EKVX NSCLC; 13.5 µM with HCT-15 colon; 6.27 µM in the assay on IGROV1 ovarian; 11.1 µM in the assay with LOX IMVI melanoma. The GI50 in the assay with MDA-MB-231 breast was 8.28 µM; in the assay with NCI-H226 lung, 12.9 µM; in the assay on NCI-H23 lung, 9.4 µM; in the assay on SF-295 CNS, 7.92 µM. In addition, the TGI with 786-0 renal was 33.1 µM; in the assay on A498 renal it was 20 µM; in the assay with EKVX NSCLC it was above 50 µM; in the assay with HCT-15 colon it was above 50 µM; in the assay with IGROV1 ovarian it was 28.2 µM; in the assay with LOX IMVI melanoma it was 39 µM. The TGI in the assay on MDA-MB-231 breast is above 50 µM; with NCI-H226 lung it was above 50 µM; with NCI-H23 lung it was 25.9 µM; in the assay on SF-295 CNS, 25.8 µM.

Take `CN(C)c1ccc(/C=C\c2ccnc3ccccc23)cc1`: the GI50 in the assay on 786-0 renal was 6.03 µM; in the assay on A498 renal, 7.57 µM; in the assay on EKVX NSCLC it was 2.63 µM; in the assay on HCT-15 colon, 4.42 µM; in the assay on IGROV1 ovarian it was 8.85 µM; with LOX IMVI melanoma it was 9.82 µM. Moreover, the GI50 in the assay on MDA-MB-231 breast is 11.3 µM; with NCI-H226 lung, 2.86 µM; in the assay with NCI-H23 lung, 3.63 µM; in the assay with SF-295 CNS, 3.56 µM. Moreover, the TGI in the assay on 786-0 renal was above 39.2 µM; with A498 renal, above 26.7 µM; in the assay on EKVX NSCLC it was above 37.9 µM; in the assay on HCT-15 colon it was above 100 µM; in the assay on IGROV1 ovarian, above 100 µM; with LOX IMVI melanoma it was above 100 µM. The TGI with MDA-MB-231 breast is above 73.9 µM; with NCI-H226 lung, 48.2 µM; in the assay on NCI-H23 lung, 63.4 µM; in the assay on SF-295 CNS, above 44.7 µM.

Take `O=C1NC(=S)S/C1=C\c1cn(-c2ccccc2)nc1-c1ccccc1`: the GI50 was 3.92 µM with 786-0 renal; 2.99 µM in the assay with A498 renal; 3.03 µM in the assay with EKVX NSCLC; 4.71 µM in the assay on HCT-15 colon; 13.9 µM with IGROV1 ovarian; 10 µM in the assay on LOX IMVI melanoma. Besides, the GI50 in the assay on MDA-MB-231 breast is 10.1 µM; in the assay with NCI-H226 lung, 20.3 µM; with NCI-H23 lung it was 2.68 µM; in the assay with SF-295 CNS, 3.33 µM. Also, the TGI in the assay with 786-0 renal turned out to be 28.5 µM; in the assay on A498 renal it was 18.2 µM; with EKVX NSCLC, 23.6 µM; in the assay on HCT-15 colon, 23.2 µM; in the assay with IGROV1 ovarian it was 38.9 µM; in the assay with LOX IMVI melanoma it was 55.4 µM. Further, the TGI stood at 33.3 µM in the assay with MDA-MB-231 breast, 76.5 µM in the assay with NCI-H226 lung, 15.9 µM in the assay on NCI-H23 lung and 17.2 µM with SF-295 CNS.

As for `CCCn1c2c(c3ccccc3c1=O)C(=O)c1ccccc1-2`, the TGI in the assay with 786-0 renal, in the assay on A498 renal, in the assay with EKVX NSCLC, in the assay on HCT-15 colon, with IGROV1 ovarian and in the assay with LOX IMVI melanoma was above 100 µM throughout. The TGI in the assay with MDA-MB-231 breast, in the assay with NCI-H226 lung, with NCI-H23 lung and with SF-295 CNS was above 100 µM throughout.

(Values after PubChem BioAssay (NCI).)
